Reference: PMC6372683, “Mechanism of the natural product moracin-O derived MO-460 and its targeting protein hnRNPA2B1 on HIF-1α inhibition” (Experimental & Molecular Medicine, 2019)

How the values were obtained:
HIF-1α = HIF-1α accumulation under real hypoxia (1% oxygen), western blotting and immunostaining; format: cell-based, human; conditions: 24 h
Protocol: For immunofluorescence observation, Hep3B cells were seeded on microplates at 2 or 5 × 10^4 cells/mL and cultured for 18 h. […] The medium in the microplate wells was then removed and cells were fixed with 3.7% formaldehyde in PBS for 15 min then permeabilized for 5 min with 100% cold MeOH. Cells were washed with PBS containing 1% bovine serum albumin (PBS-1% BSA), and then treated with 5% bovine serum albumin for 20 min. The cells in each well were treated with HIF-1α antibody in PBS-0.1% BSA then placed in a humidified atmosphere of 5% CO2 at 37 °C and incubated for 60 min. After being washed with PBS-0.1% BSA, treated wells of HIF-1α were incubated with Alexa Fluor 488-conjugated mouse anti-IgG antibody in PBS-0.1% BSA then incubated at room temperature for 60 min. After being washed with PBS-0.1% BSA, the dish wells were overlaid with Hoechst 33342 for 5 min at room temperature and then washed with PBS-0.1% BSA. Fluorescence was photographed with an inverted ECLIPSE Ti-U microscope (Nikon Corporation, Japan).

[1] = biological target: T1, hnRNPA2B1 GRD (202–353 aa) (Homo sapiens, UniProt P22626); experiment: BLItz association-dissociation binding assay, GRD of hnRNPA2B1; conditions: 6XHis tagged protein, Con. 5 uM, biotin-MO-460 on streptavidin tip
T1 construct: 202–353 aa; His; made in house; host or cells: bacteria (pET28A vector)
T1 sequence (P22626 202-353): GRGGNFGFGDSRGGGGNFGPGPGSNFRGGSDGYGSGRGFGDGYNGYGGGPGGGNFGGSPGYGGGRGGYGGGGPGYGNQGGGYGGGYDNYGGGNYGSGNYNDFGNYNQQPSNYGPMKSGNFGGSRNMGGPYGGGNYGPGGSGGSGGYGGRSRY
Protocol: (§1) The binding capacity of hnRNPA2B1 to Biotin-MO-460 was also analyzed using a BLItz™ (Fortebio, Inc., CA, US) instrument with a streptavidin-coated biosensor tip (Pall, USA). The streptavidin-coated tips were pre-wetted for 10 min in an incubation buffer (10 mM HEPES pH 7.4, 1% BSA and 0.05% Tween 20). The streptavidin-coated tips were immobilized with 1 μM Biotin-MO-460 in incubation buffer (10 mM HEPES pH 7.4, 1% BSA and 0.05% Tween 20) for 5 min. […] The concentrations were then incubated with HEPES for another 3 min to desorb the protein. Analysis of the accurate and precise kinetic constants was performed by the BLItz data analysis software (BLItz Pro 1.1).

[2] = biological target: T2, full-length hnRNPA2B1 (1–353 aa) (Homo sapiens, UniProt P22626); experiment: BLItz association-dissociation binding assay, full-length hnRNPA2B1; conditions: 6XHis tagged protein, Con. 5 uM, biotin-MO-460 on streptavidin tip
T2 construct: 1–353 aa; His; made in house; host or cells: bacteria (pET28A vector)
T2 sequence (P22626 whole entry, the tested form may be a part): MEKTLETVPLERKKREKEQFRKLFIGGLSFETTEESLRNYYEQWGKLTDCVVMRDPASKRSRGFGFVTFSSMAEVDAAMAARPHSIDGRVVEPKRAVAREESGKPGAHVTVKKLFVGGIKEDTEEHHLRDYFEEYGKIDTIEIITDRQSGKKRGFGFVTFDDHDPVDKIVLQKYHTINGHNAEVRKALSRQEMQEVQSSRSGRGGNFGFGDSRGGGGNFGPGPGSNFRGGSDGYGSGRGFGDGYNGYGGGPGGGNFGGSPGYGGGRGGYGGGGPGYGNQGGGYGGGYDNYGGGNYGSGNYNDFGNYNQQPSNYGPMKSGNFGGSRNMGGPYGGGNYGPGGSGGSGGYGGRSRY
Protocol: as §1

hnRNPA2B1 RRM (1–193 aa) = biological target: T3, hnRNPA2B1 RRM (1–193 aa) (Homo sapiens, UniProt P22626); experiment: BLItz association-dissociation binding assay, RRM of hnRNPA2B1; conditions: 6XHis tagged protein, biotin-MO-460 on streptavidin tip
T3 construct: 1–193 aa; His; made in house; host or cells: bacteria (pET28A vector)
T3 sequence (P22626 1-193): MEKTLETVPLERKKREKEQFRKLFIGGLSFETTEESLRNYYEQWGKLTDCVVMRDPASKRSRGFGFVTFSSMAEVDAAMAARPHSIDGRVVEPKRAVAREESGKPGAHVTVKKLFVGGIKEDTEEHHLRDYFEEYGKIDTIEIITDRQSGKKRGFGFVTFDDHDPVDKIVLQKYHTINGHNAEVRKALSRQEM
Protocol: as §1

[3] = biological target: T4, hnRNPA2B1 domain-based constructs fused to GFP (Homo sapiens, UniProt P22626); experiment: Pull-down assay with GFP-fused domain constructs of hnRNPA2B1; format: binding
T4 construct: expressed in transfected cells

[4] = test system: hnRNPA2B1 domain-based constructs fused to GFP; experiment: as above; format: binding, human; conditions: GFP-fused N-terminal RNA recognition motifs

| Kd [1] [µM] | melting point | Kd [2] [µM] | Kd (hnRNPA2B1 RRM (1–193 aa)) | binding of C-terminal glycine-rich domain (GRD) in pull-down ([3]; GFP-fused GRD) | binding of full-length hnRNPA2B1 in pull-down ([3]; GFP-fused full-length hnRNPA2B1) | binding of RRM1, RRM2 and RRM1-RRM2 in pull-down [4] | SMILES | HIF-1α accumulation (HIF-1α) |
| --- | --- | --- | --- | --- | --- | --- | --- | --- |
|  |  |  |  |  |  |  | CC(C)(O)[C@H]1Cc2cc3cc(-c4cc(O)cc(O)c4)oc3cc2O1 [(R)-(-)-moracin O, (R)-(-)-moracin-O, reference compound] | reduction in HIF-1α accumulation |
| 6.6 | 165.1 to 168.2 °C (dec.) | 11.4 | no specific interactions | strongly bound | strongly bound | did not bind | CC(C)(O)[C@H]1Cc2cc3cc(-c4ccc(OCC(=O)NCCOCCOCCNC(=O)CCCC[C@@H]5SC[C@@H]6NC(=O)N[C@@H]65)cc4)oc3cc2O1 [biotin-MO-460, (R)-5-(2-Oxo-hexahydro-thieno[3,4-d]-imidazol-4-yl)-pentanoic acid-(2-{2-[2-(2-{4-[6-(1-hydroxy-1-methyl-ethyl)-5,6-dihydro-benzo[1,2-b;5,4-b']difuran-2-yl]-phenoxy}-acetyl-amino)-ethoxy]-ethoxy}-ethyl)-amide] |  |
